ChEMBL document CHEMBL1149921 (Bioorg Med Chem Lett, 1996)
Values belong to the compound of their own block, whether it stands above or below them.

How the values were obtained:
[1] = target: T1, Neprilysin (Rattus norvegicus) (UniProt P07861); test: Compound was tested for inhibitory activity against neutral endopeptidase (NEP) at concentration 300 nM
T1 sequence (whole entry): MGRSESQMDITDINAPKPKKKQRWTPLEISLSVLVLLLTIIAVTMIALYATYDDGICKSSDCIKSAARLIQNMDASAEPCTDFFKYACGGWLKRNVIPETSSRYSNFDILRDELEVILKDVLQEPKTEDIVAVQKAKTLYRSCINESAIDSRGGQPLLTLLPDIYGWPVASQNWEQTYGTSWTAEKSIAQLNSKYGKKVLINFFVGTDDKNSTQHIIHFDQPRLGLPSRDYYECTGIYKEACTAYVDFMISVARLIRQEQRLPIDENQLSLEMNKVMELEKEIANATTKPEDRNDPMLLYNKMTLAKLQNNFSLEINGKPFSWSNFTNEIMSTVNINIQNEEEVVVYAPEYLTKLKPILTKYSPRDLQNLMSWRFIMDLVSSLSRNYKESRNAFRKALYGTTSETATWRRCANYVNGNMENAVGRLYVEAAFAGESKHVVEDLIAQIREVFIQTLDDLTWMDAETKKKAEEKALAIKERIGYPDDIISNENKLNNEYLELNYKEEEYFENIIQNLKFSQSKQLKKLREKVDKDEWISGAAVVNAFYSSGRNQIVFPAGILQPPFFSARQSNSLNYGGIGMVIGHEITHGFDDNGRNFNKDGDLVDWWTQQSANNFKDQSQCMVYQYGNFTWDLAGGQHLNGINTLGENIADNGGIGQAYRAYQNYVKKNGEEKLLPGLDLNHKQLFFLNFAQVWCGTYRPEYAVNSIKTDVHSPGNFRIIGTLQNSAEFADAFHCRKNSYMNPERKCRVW

[2] = target: T1, Neprilysin (Rattus norvegicus); test: Compound was tested for inhibitory activity against neutral endopeptidase (NEP) at concentration 1000 nM
Neprilysin [3] = target: T2, Neprilysin (Rattus norvegicus, UniProt P07861); test: Compound was tested for inhibitory activity against neutral endopeptidase (NEP)
T2 sequence (P07861 whole entry): T1 sequence (whole entry)

[4] = target: T3, Endothelin-converting enzyme 1 (Homo sapiens) (UniProt P42892); test: Compound was tested for inhibitory activity against Endothelin-converting enzyme isolated from guinea pig lung membrane at concentration 10 nM; assay type: tissue-based; settings: Cavia porcellus, target entry is the homologue from another species
T3 sequence (whole entry): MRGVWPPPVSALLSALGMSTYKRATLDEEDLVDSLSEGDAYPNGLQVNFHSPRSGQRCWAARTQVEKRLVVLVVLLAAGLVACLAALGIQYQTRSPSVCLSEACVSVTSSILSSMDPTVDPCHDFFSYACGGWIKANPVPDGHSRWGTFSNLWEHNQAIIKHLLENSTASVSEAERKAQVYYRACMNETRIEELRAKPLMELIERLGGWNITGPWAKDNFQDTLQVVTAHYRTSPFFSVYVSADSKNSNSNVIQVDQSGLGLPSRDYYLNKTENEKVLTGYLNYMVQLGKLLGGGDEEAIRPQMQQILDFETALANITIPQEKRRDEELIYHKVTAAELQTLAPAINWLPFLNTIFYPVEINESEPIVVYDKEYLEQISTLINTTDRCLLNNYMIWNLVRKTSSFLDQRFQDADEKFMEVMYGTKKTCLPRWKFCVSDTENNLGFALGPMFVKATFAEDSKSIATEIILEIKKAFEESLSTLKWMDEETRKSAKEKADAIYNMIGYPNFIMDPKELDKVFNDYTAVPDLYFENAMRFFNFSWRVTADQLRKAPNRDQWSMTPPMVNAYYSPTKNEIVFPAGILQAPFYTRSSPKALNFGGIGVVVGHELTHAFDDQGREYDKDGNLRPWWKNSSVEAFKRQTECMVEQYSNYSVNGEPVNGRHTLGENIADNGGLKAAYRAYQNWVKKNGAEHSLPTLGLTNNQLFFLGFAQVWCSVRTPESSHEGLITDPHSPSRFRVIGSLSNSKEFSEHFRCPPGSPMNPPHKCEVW

[5] = target: Neprilysin (Rattus norvegicus) (UniProt P07861); test: Compound was tested for inhibitory activity against neutral endopeptidase (NEP) at concentration 10 nM
Neprilysin [6] = target: T2, Neprilysin; test: compound was tested for inhibitory activity against neutral endopeptidase (NEP)

inhibition [1]: 9%
SMILES: CC(C)CC(CP(=O)(O)C(Cc1ccccc1)NC(=O)[C@H](CC(C)C)NC(=O)OCc1ccccc1)C(=O)N[C@@H](Cc1c[nH]c2ccccc12)C(=O)O (stereo not given in full)

inhibition [1]: 19%
SMILES: CC(C)C(CP(=O)(O)C(Cc1ccccc1)NC(=O)[C@H](CCCCNC(=O)OCc1ccccc1)NS(C)(=O)=O)C(=O)N[C@@H](Cc1c[nH]c2ccccc12)C(=O)O (stereo not given in full)

inhibition [2]: 0%
SMILES: CC(C)C(CP(=O)(O)C(Cc1ccccc1)NC(=O)[C@H](CCCCN)NC(=O)OCc1ccccc1)C(=O)N[C@@H](Cc1c[nH]c2ccccc12)C(=O)O (stereo not given in full)

IC50 (Neprilysin [3]): 370 nM
inhibition [4]: 57%
SMILES: CC(C)CC(NC(=O)[C@H](CCCCNC(=O)OCc1ccccc1)NS(C)(=O)=O)P(=O)(O)CC(C)C(=O)N[C@@H](Cc1c[nH]c2ccccc12)C(=O)O (stereo not given in full)

inhibition [1]: 18%
SMILES: CC(C)CC(CP(=O)(O)C(Cc1ccc2ccccc2c1)NC(=O)[C@H](CCCCN)NS(C)(=O)=O)C(=O)N[C@@H](Cc1c[nH]c2ccccc12)C(=O)O (stereo not given in full)

inhibition [5]: 31%
SMILES: CC(C)CC(CP(=O)(O)C(N)Cc1ccccc1)C(=O)N[C@@H](Cc1c[nH]c2ccccc12)C(=O)O (stereo not given in full)

IC50 (Neprilysin [6]): 320 nM
SMILES: CC(C)CC(CP(=O)(O)C(CC(C)C)NC(=O)[C@H](CCCCNC(=O)OCc1ccccc1)NS(C)(=O)=O)C(=O)N[C@@H](Cc1c[nH]c2ccccc12)C(=O)O (stereo not given in full)

inhibition [1]: 13%
SMILES: CC(C)CC(CP(=O)(O)C(Cc1ccc2ccccc2c1)NC(=O)[C@H](CCCCNC(=O)OCc1ccccc1)NS(C)(=O)=O)C(=O)N[C@@H](Cc1c[nH]c2ccccc12)C(=O)O (stereo not given in full)

IC50 (Neprilysin [6]): 800 nM
SMILES: CC(C)C(CP(=O)(O)C(Cc1ccccc1)NC(=O)[C@H](CCCCN)NS(C)(=O)=O)C(=O)N[C@@H](Cc1c[nH]c2ccccc12)C(=O)O (stereo not given in full)
